The values below come from patent US20060099712A1, “Correlation of anti-cancer activity of dyes with redox potentials” (Eastman Kodak Company, priority 2004, published 2006).

Where two headings read alike, the source gives them in different places. Some results are limits rather than exact numbers.

In series [1] the test system is CV-1 Normal Monkey Kidney Epithelial. The series is described as follows: Clonogenic dye screening assay, CV-1 cells (IC50). The settings on record: Primates, unit from method. The series is classed as cell-based, African green monkey. An excerpt:
CX-1 is a cancerous human colon adenocarcinoma cell line. CV-1 is a non-cancerous control, which is a kidney epithelial cell line from an African green monkey. IC50 is the dye concentration at which 50% of the cells are killed. Selectivity or kill ratio is defined as the ratio of […] at IC50 for both CX-1 and CV-1. A ratio with a high number indicates a high selectivity.
The dyes were screened in two cell lines. CX-1 is a human colon adenocarcinoma cell line. CV-1 is a kidney epithelial cell line from an African green monkey. CV-1 was used as a reference because no normal human epithelial cell line is available for clonogenic assay.
In the initial screen, dyes were examined at six different concentrations to generate a dose response curve. An IC50 value, the concentration at which 50% of the cells are killed, was then calculated. Initially, a dye concentration of 1.0 μg/mL was the highest examined for the CX-1 cell line and 0.005 μg/mL was the lower limit. The corresponding limits on the CV-1 cell line were […].
The screening procedure used a response curve that was determined from eight dye concentrations. The upper and lower limits of CX-1 were 0.32 and 0.0015 μg/mL, respectively, and the corresponding revised limits on CV-1 were 3.2 and 0.025 μg/mL. The screening results were reported by assigning an IC50 value to each dye for the CV-1 and CX-1 cell lines. These values will be referred to herein simply as CV and CX. The most desirable result would be to have a dye that was highly toxic to carcinoma cells but nontoxic to ‘normal’ cells. One measure of this type of selectivity is the ratio of the IC50's in the normal cell line to that in the carcinoma line, CV/CX.
Compounds are screened via an in vitro assay. CV-1 and CX-1 cells are seeded into separate assay plates. The plates are treated with varying concentrations of test compounds, rinsed, and colonies allowed to grow. IC50's are determined and drugs evaluated based on their selectivity and toxicity. Assay Steps: • I. Seeding Cells • II. Weighing • III. Preparation of Solution • IV. Treatment • V. Rinsing and Feeding • VI. Fixing • VII. IC50 Determination I. Seeding Cells
The cells should be seeded 16-30 hours before treatment. The media for CV-1 cells is DME+5% calf serum +5% Nuserum. The media for CX-1 cells is RPMI/DME (50/50)+5% calf serum +5% Nuserum.
(c) number of cells based on 2000 CX-1 cells/well and 1000 CV-1 cells/well. NOTE: Always make enough cell suspension for 1 extra plate to allow for volume loss during transfers.
• (a) For CV-1: 256 ug/ml-256 ul of 1 mg/ml stock +744 ul DMSO • (b) For CX-1: 25.6 ug/ml-100 ul of 256 ug/ml+900 ul DMSO IV. Treatment • 1. Each plate is treated with 4 test compounds, one positive control and one negative control. • 2. Serial dilutions of the compounds are made in the following way:
2 multi-well pipetters are used. One is set for 10 ul and one for 200 ul. Each is equipped with 6 tips spaced such that they fit into the 6 rows of a plate. 390 ul of media is added to the first column of each plate. 10 ul each of 4 compound solutions, a positive and a negative control are taken up and put into the first column of wells. The 200 ul pipetter is then placed in the same wells, pipetted up and down 3 times and two 200 ul aliquots are moved to the next column of wells. This column is pipetted up and down 3 times and 400 ul moved to column 3, etc. The final 400 ul excess from column 8 is discarded.
• 3. Label the plates along the front, each row −1 compound. • 4. Incubate the plates at 37° C. for 3 hrs. V. Rinsing • 1. Prepare several bottles of CX-1 and CV-1 media. • 2. Check for precipitate in first column of each plate and note. • 3. Starting with the plates treated first, rinse several plates at a time by aspirating the treatments and refilling each well with 0.5-1.0 ml of the rinse media. Aspirate and refill 2 more times for a total of 3 rinses. • 4.

Series [2] concerns CX-1 Human Colon Carcinoma. Kind of series: Clonogenic dye screening assay, CX-1 cells (IC50). The series is classed as cell-based. As to conditions: for IC50: Homo sapiens, unit from method; for Selectivity: Table 1, cell line not given, values equal CV/CX of Table II; for CV/CX (selectivity, kill ratio): ratio of IC50 in normal CV-1 line to IC50 in carcinoma CX-1 line. The procedure, abridged:
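Cells seeded 16-30 h ahead (2000 CX-1 or 1000 CV-1 per well), exposed to serially diluted dyes for 3 h at 37 °C, rinsed three times, then grown into colonies. Eight-point curves spanned 0.32-0.0015 μg/mL (CX-1) and 3.2-0.025 μg/mL (CV-1). IC50 is the concentration killing 50% of cells.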

The nature of series [3]: Electrochemical reduction potential (Er) measurement, SHACV / fast scan CV. The series is classed as physicochemical. An excerpt:
In the practice of this invention the reduction potential of a given dye may be determined in various ways. If available, the published reduction potential may be employed. Reduction potentials for numerous cyanine and merocyanine dyes are available in the literature. (See J. Lenhard, Journal of Imaging Science, vol. 30 pp. 27-35 (1986).) A large amount of data has been generated on the reduction and oxidation potentials of these dyes from their use in photography and related arts where they are employed, inter alia, as spectral sensitizers.
If a published reduction potential is not available, suitable techniques for measuring reduction potential are available. Accurate electrochemical oxidation and reduction potentials for these organic dyes can be measured by the techniques of fast scan cyclic voltommetry (CV) or second harmonic ac voltommetry (SHACV). SHACV measurements are made as described by Lenhard in the Journal of Imaging Science volume 30, 1986 pp 27-35 using a commercially available (Princeton Applied Research Corp.) potentiostat in conjunction with voltage programmer, a conventional lock-in amplifier, and a low-distortion oscillator. The SHACV method utilizes an ac voltage waveform (of a frequency greater than or equal to 400 hz) that is superimposed on a DC potential ramp. On the other hand, the measurement of the oxidation or reduction potential by the CV method utilizes a (high frequency) triangular voltage waveform. The general procedures for measuring potentials by this method have been described by Wightman in Analytical Chemistry, 1984, vol. 56, pp524 and Journal of Physical Chemistry, 1984, vol. 88, pp3915. The specific application of this technique to the measurement of cyanine dye potentials has been reported by Nomura and Okazaki, Chemistry Letters, 1990, pp2231-2234. Commercial instrumentation especially designed for fast scan (i.e., high frequency) CV is available. It is noteworthy that because of the complicated nature of many of the cyanine dyes, electrochemical reactions, conventional slow scan cyclic voltommetry or polarography methods (as described by R. Large in Photographic Sensitivity, R. Cox, ed., Academic Press, New York, 1973, pp 241-263) provide only approximate values for oxidation and reduction potentials. Errors as large as 0.4 V from the true potential can be obtained by using slow scan CV or electrochemical methods.
The procedure for measuring the oxidation or reduction potential by the SHACV or fast scan CV method utilizes solutions of acetonitrile (or similar nonaqueous solvent) with added tetrabutylammonium tetrafluoroborate TBABF4 at a concentration of 0.1 M and ca. 5×10^−4 M of the cyanine, oxonol, or merocyanine dye. For measurement of the reduction potential the solution must be deaerated with argon prior to examination. The preferred working electrode is a Pt disk (ca. 0.02 cm^2) that is polished with 1 μm diamond paste, rinsed with water, and dried before each experiment. The reference electrode is a NaCl saturated calomel electrode. The cell and reference electrodes are maintained at 22 C. A value of 40 mV is added to the measured potentials to convert the number to that corresponding to an Ag/AgCl reference electrode. If a solvent other than acetonitrile is used then the measured potential must be referenced to a standard organic redox system such as ferrocene and corrected accordingly.
SHACV (Second Harmonic Alternating Current Voltametry) measurements are made as described by Lenhard in the Journal of Imaging Science volume 30, 1986 pp 27-35 using a commercially available (Princeton Applied Research Corp.) potentiostat in conjunction with voltage programmer, a conventional lock-in amplifier, and a low-distortion oscillator. The SHACV method utilizes an ac voltage waveform (of a frequency greater than or equal to 400 hz) that is superimposed on a DC potential ramp. […]

Series [4] is described as follows: Dye solubility (water, 5% dextrose/water). The series is classed as physicochemical. An excerpt: Dye solubility is also a factor, since compounds having low water solubility are difficult or impossible to include in in vivo testing.
S13 is one of the simplest cyanine dye structures possible (in this nomenclature the S refers to the sulfur, the 1 indicates one carbon on the nitrogen and 3 indicates a 3 methine chain). […] A synthetic challenge will be to enhance the activity/selectivity of this dye and retain its good water solubility. [drawing 23]

Series [5] has as its system MCF-7 Human Breast Carcinoma. Kind of series: Initial in vitro screening, breast carcinoma cells. The settings on record: MCF7; cell line 3, MCF-7 human breast carcinoma; unit from method; read-out: IC50 (concentration at which 50% of the cells of the culture are killed). It counts as cell-based. An excerpt:
(§1) Other publications have shown that some cyanine dyes show anti-cancer activity. See I. Minami, Y. Kozai, H. Nomura and T. Tashiro, Chem. Phar. Bull. 30:3106 (1982); W. M. Anderson, D. L. Delinick, L. Benninger, J. M. Wood, S. T. Smiley and L. B. Chen, Biochemical Pharmacology, 45:691 (1993). […] (See L. G. S. Brooker, L. A. Sweet, Science, 105, (1947) and I. Minami, Y. Kozai, H. Nomura, T. Tashiro, Chem. Pharm. Bull., 30,3106 (1982) on chemotherapeutic investigations of cyanine dyes.) Table I lists initial in vitro screening results in various cell lines and a comparison with Adriamycin, which is a widely used chemotherapeutic agent.
(§2) Description of Cell Line • 1. CV-1 Normal Monkey Kidney Epithelial (control) • 2. CX-1 Human Colon Carcinoma • 3. Human Breast Carcinoma • 4. Human Pancreatic Carcinoma • 5. Human Bladder Carcinoma • 6. Human Lung Carcinoma • 7. Human Squamous Cell Carcinoma • 8. Human Adrenal Cortex Carcinoma

In series [6] the test system is CRL 1420 Human Pancreatic Carcinoma. Kind of series: Initial in vitro screening, pancreatic carcinoma cells. The settings on record: cell line 4, CRL 1420 human pancreatic carcinoma; unit from method; read-out: IC50 (concentration at which 50% of the cells of the culture are killed). The series is classed as cell-based.
From the text: as §1, §2

The test system of series [7] is EJ Human Bladder Carcinoma. Kind of series: Initial in vitro screening, bladder carcinoma cells. As to conditions: cell line 5, EJ human bladder carcinoma; unit from method; read-out: IC50 (concentration at which 50% of the cells of the culture are killed). The series is classed as cell-based.
From the text: as §1, §2

Series [8] concerns CCL 185 Human Lung Carcinoma. Kind of series: Initial in vitro screening, lung carcinoma cells. The series is classed as cell-based. The settings on record: cell line 6, CCL 185 human lung carcinoma; unit from method; read-out: IC50 (concentration at which 50% of the cells of the culture are killed).
From the text: as §1, §2

Series [9] relates to SCC 68 Human Squamous Cell Carcinoma. The series is described as follows: Initial in vitro screening, squamous cell carcinoma cells. The series is classed as cell-based. As to conditions: cell line 7, SCC 68 human squamous cell carcinoma; unit from method; read-out: IC50 (concentration at which 50% of the cells of the culture are killed).
From the text: as §1, §2

For series [10], the system named is CCL 105 Human Adrenal Cortex Carcinoma. Kind of series: Initial in vitro screening, adrenal cortex carcinoma cells. It counts as cell-based. The settings on record: cell line 8, CCL 105 human adrenal cortex carcinoma; unit from method; read-out: IC50 (concentration at which 50% of the cells of the culture are killed).
From the text: as §1, §2

Setting [11] is: CV-1, 3 hrs treatment, colonies after 7-10 days, read-out: CV (IC50 in the CV-1 cell line).
Where [12] appears, read: CX-1, 3 hrs treatment, colonies after 7-10 days, read-out: CX (IC50 in the CX-1 cell line).

Consider `CCN1/C(=c2\s/c(=c3\s/c(=C/c4sc5ccccc5[n+]4CC)n(CC)c3=O)n(CC)c2=O)Sc2ccccc21` [Dye D-112], for which the IC50 in series [1] (setting [11]) was 9 µg/mL. In addition, the IC50 in [2] (setting [12]) is 0.01 µg/mL. Further, in series [2], the Selectivity is 900 and the “CV/CX (selectivity, kill ratio)” value came to 900. Further, in [3], the “ER(v), electrochemical reduction potential” value was −1.1 V.
On to `CN1/C(=C/C=C/c2sc3cc4ccccc4cc3[n+]2C)Sc2cc3ccccc3cc21.Cc1ccc(S(=O)(=O)[O-])cc1` [Dye D-140], for which, in series [2] (3 hrs treatment, colonies after 7-10 days, unit from method b117-118), the “CX (IC50 in the CX-1 cell line)” value was under 0.005 µg/mL. In addition, in series [2], the “CV/CX (selectivity, kill ratio)” value came out at 60. In [4] (among compounds with enhanced activity), the solubility result was “most desirably soluble”.
With `CC[n+]1c(/C=C/C(C(=O)c2ccccc2)=P(c2ccccc2)(c2ccccc2)c2ccccc2)sc2ccccc21` [Dye D-148], the IC50 is over 10 µg/mL in series [1] (setting [11]) and 0.04 µg/mL in series [2] (setting [12]). Also, the Selectivity in [2] was 250. The “CV/CX (selectivity, kill ratio)” value in [2] worked out at 250. Besides, the “ER(v), electrochemical reduction potential” value in series [3] is on record as −1.15 V.
For the compound `Clc1ccc2c(c1)N1CCC(/C=C3\CC[n+]4c3sc3ccc(Cl)cc34)=C1S2` [Dye D-168], the IC50 in [2] (setting [12]) is 3 µg/mL. In series [2], the Selectivity is recorded as 100.0 and the “CV/CX (selectivity, kill ratio)” value amounted to 100.0. Also, the “ER(v), electrochemical reduction potential” value in series [3] is given as −0.9 V.
For `CCN1/C(=C/N=N/c2sc3ccccc3[n+]2CC)Sc2ccccc21` [Dye O-1, reference compound], the IC50 in series [1] (CV-1, cell line 1, CV-1 normal control, read-out: IC50 (concentration at which 50% of the cells of the culture are killed)) was 7.5 µg/mL; in [2] (CX-1, cell line 2, CX-1, read-out: IC50 (concentration at which 50% of the cells of the culture are killed)), 0.5 µg/mL; in series [5], 0.3 µg/mL; in [6] it was 0.75 µg/mL; in [7], 0.3 µg/mL; in [8], 0.8 µg/mL. In addition, the IC50 in series [9] and in [10] was 0.3 µg/mL each time.
With `CN1/C(=C/C=C/c2sc3ccccc3[n+]2C)Sc2ccccc21` [Dye S13], the “solubility in 5% dextrose/water solutions” value in series [4] (5% dextrose/water) is on record as “good solubility”.
